# According to patent US20120035256A1, “Use of bipolar trans carotenoids as a pretreatment and in the treatment of peripheral vascular disease” (Diffusion Pharmaceuticals LLC, priority 2008, published 2012):
# Key:
# [1] = tested on: atherosclerotic plaque formation; settings: rabbits; Gainer and Chisolm, Atherosclerosis 19: 135-138, 1974; cited from earlier work
# [2] = Rat transcutaneous oxygen (TCOM) study with 100% oxygen; assay type: in vivo; settings: male Sprague-Dawley rats breathing 100% oxygen, TSC injected into femoral vein, 45 minutes recording, FIG. 1
# Protocol: For the rat TCOM studies, male Sprague-Dawley rats were used which weighed between 350 and 400 grams each. TCOM electrodes are attached to humans on the chest, on the leg, or on the top of the foot. Using a TCOM apparatus (Radiometer), the electrodes were attached to the shaven skin in the areas of the chest, the abdomen, and the thigh of the rats. Pure oxygen was then administered to the rats. The most reproducible results came from the electrode attached near the rat's abdomen, on the left or right side.
# The rats were anesthetized (to quiet them) using IP injections of 80 mg/kg ketamine and 10 mg/kg xylazine.
# After the animals were asleep, the abdomen area of the rat was shaved and the TCOM electrode collar was attached to that area. Using Dow Corning high vacuum silicone grease between the electrode collar and the skin was helpful in maintaining a good seal on the rat's skin.
# After attaching the TCOM probe, the transcutaneous oxygen tension was then monitored for 30 minutes while the rat breathed room air. The rat was then switched to 100% oxygen and TSC was injected into the femoral vein. The TCOM readings were then recorded for an additional 45 minutes.
# [3] = tested on: focal cerebral ischemia (three vessel occlusion: both CCA and MCA); test: Three vessel occlusion focal cerebral ischemic model; assay type: in vivo, rat
# Excerpt: Preconditioning or pretreating a patient (mammal including human) with a bipolar trans carotenoid is advisable for the following patients: • a patient at risk of an ischemic event; • a patient at risk of forming an embolism or blood clot in the blood vessels, the brain, the heart, or the lungs. The embolism can be fat globules (a fat embolism), air bubbles (an air embolism), talc embolism (often following drug abuse), septic emboli (containing pus and bacteria), atherosclerotic emboli, or amniotic fluid; • a patient at risk of stroke including a patient diagnosed with a blocked carotid artery or having suffered a transient ischemic attack (TIA). In Example 2, TSC was administered intravenously to rats 24 hours before the ischemic injury to the brain occurred. Sufficient time passed between the administration of TSC and the subsequent event so that the TSC would have been cleared from the system. The TSC was dissolved in water, and given over a period of an hour in the following manner. First a 0.1 ml bolus injection was given, then a slow infusion (0.6 ml given over 60 minutes) was given, and finally another 0.1 ml bolus was given. […] The occlusions were removed after 2 hours, and the infarct volume (core plus penumbra) was measured 24 hours later. […]
# Trans-sodium crocetinate (0.091 mg/kg total dosage) or vehicle was administered intravenously as follows 1) 0.1 ml injection 2) continuous infusion of TSC at a rate of 0.01 ml/min for the next 60 minutes, and 3) a final 0.1 ml injection of TSC 30 minutes after the cessation of continuous infusion. […] Infarction volumes were measured 24 hours after the ischemic event.
# The effects of TSC on focal ischemic injury were examined using adult male Sprague-Dawley rats, each of which weighed between 330 and 370 g. […] Rectal temperature was monitored continuously and maintained at 37° C. with a heating lamp. […]
# Focal ischemic was performed by clipping (Sundt AVM microclip No 1, Codman & Shurtleff, Inc., Raynham, Mass.) the MCA at a point distal to the origin of the lenticulostriate arteries. […] After 24 hours, infarct volume was calculated. […]
Structure (SMILES),Atherosclerotic plaque formation over time [1],TCOM reading (transcutaneous oxygen tension) [2],"Infarct volume (actual, adjusted for swelling) ([3]; 3VO+TSC group, TSC 0.091 mg/kg total i.v. 24 hours before 120 min ischemia, measured 24 hours after the ischemic event, mean±SEM, p<0.01 vs 3VO-only or 3VO+Vehicle) [mm3]","Reduction in infarct volume, preischemic treatment ([3]; TSC 0.091 mg/kg i.v. 24 hours before ischemic injury, occlusions removed after 2 hours, infarct volume measured 24 hours later) [%]","Reduction in infarct volume, intraischemic treatment ([3]; intraischemic treatment with TSC done previously in this model) [%]"
CC(/C=C/C=C(\C)C(=O)O)=C\C=C\C=C(C)\C=C\C=C(/C)C(=O)O [Crocetin],reduction in atherosclerotic plaque formation,,,,
"CC(/C=C/C=C(\C)C(=O)[O-])=C\C=C\C=C(C)\C=C\C=C(/C)C(=O)[O-].[Na+].[Na+] [TSC, trans sodium crocetinate]",,additional increase in the TCOM reading,57.7±16.2,65,58
